From patent US8415376B2, “Inhibitors of PI3 kinase” (Amgen Inc., priority 2008, dated 2013) come the findings set out here.

The structures appear in SMILES notation.

One assay concerns the target T1, PI3Kα (Homo sapiens, UniProt P42336).
T1 construct: Full length p110 subunits of PI3K α, β and δ, N-terminally labeled with polyHis tag; polyHis (N); made in house; host or cells: Sf9 insect cells (baculovirus)
Kind of assay: In vitro PI3K AlphaScreen assay. It counts as biochemical. Particulars: average if run more than once. (In Alpha technology, singlet oxygen from a donor bead excites a nearby acceptor bead.)

The target in the next assay is T2, mTOR (Homo sapiens, UniProt P42345).
T2 construct: purchased Invitrogen (Carlsbad, Calif.)
Kind of assay: In vitro mTOR assay (Lanthascreen). It is filed as biochemical. Particulars: average if run more than once. The source says: The Invitrogen (Carlsbad, Calif.) mammalian target of rapamycin (mTOR) Lanthascreen assay can be used to quantitate mTOR kinase activity in an in vitro setting. Active mTOR phosphorylates eukaryotic translation initiation factor 4E binding protein 1 (4E-BP1) on residue threonine 46. This phosphorylation event can be detected with a phospho-specific terbium (Tb) labeled Ab, in turn bringing the Tb label in close proximity to the GFP tagged 4E-BP1 and allowing for time-resolved fluorescence resonance energy transfer (TR-FRET), which correlates 4E-BP1 phosphorylation levels with mTOR kinase activity.
Enzyme reaction buffer can be prepared in deionized water containing 50 mM HEPES (pH 7.5), 0.01% Polysorbate 20, 1 mM EGTA, and 10 mM MnCl2.
Dilutions of the compound to be tested can be prepared in 96-well polypropylene plates (Fisher Scientific, Waltham, Mass.). One row represents a 10-point dose of compound diluted 1:3 in enzyme reaction buffer and 20% dimethyl sulfoxide (DMSO). The top concentration for all compounds is 36 μM. Wells 6 and 12 can serve as the no compound (DMSO only) and high compound controls.
An mTOR substrate solution can prepared in enzyme reaction buffer containing 1600 nM green fluorescent protein tagged eukaryotic translation initiation factor 4E binding protein 1 (GFP-4E-BP1) (Invitrogen, Carlsbad, Calif.) and 28 uM adenosine triphosphate (ATP) (Calbiochem, Gibbstown, N.J.).
mTOR enzyme (Invitrogen, Carlsbad, Calif.) can be diluted in enzyme reaction buffer to a working concentration of 100 ng/mL.
The enzyme assay can be run in 384 well low volume assay plates (Corning, Corning, N.Y.). 2.5 uL of substrate solution containing GFP-4E-BP1 and ATP can be added to appropriate wells in the assay plate followed by 2.5 μL of compound dilutions. 5 μL of appropriately diluted mTOR enzyme can be added and the reaction allowed to proceed for 1 hour at room temperature. Final reagent concentrations in the enzyme assay are 50 ng/mL mTOR, 400 nM GFP-4E-BP1, and 7 μM ATP.
The enzyme assay can be terminated upon the addition of 10 μL of 20 mM EDTA and 4 nM Tb-labeled anti-phospho-4E-BP1 [T46] antibody (Invitrogen, Carlsbad, Calif.). The assay plate can then be incubated at room temperature for 1 hour and results read on a Tecan Safire II plate reader (Tecan, Männedorf, Switzerland).
A general note: In TR-FRET formats the signal depends on donor and acceptor labels being close together.

Assay [1] has as its system phosphorylation of Akt at Serine 473. Nature of the assay: pAkt AlphaScreen (U87 cell). Conditions: Homo sapiens, U-87 MG; U87 MG cells, pAkt Ser473; average. It is filed as cell-based. On the procedure:
pAkt Alphascreen (U87 Cell)
The pAkt AlphaScreen® assay (PerkinElmer, Waltham, Mass.) determines whether there is phosphorylation of Akt at Serine 473 by recruitment of a phosphospecific antibody. This assay was performed using U87 MG cells. The U87 growth media consists of MEM (Gibco, Carlsbad, Calif.) supplemented with 10% FBS (Gibco,), 1× Non-Essential Amino Acids (Gibco,) and 1× Penicillin/Streptomycin/Glutamine (Gibco). The cells were maintained weekly using 0.05% Trypsin (Gibco) and replated in 150 mm TC-Treated Culture Dishes (Corning, Corning, N.Y.).
The first day of the assay, the adherent cells were trypsinized, media was added to the loose cells and cells were mixed to a homogenous mixture. 0.5 ml of the homogenous mixture was counted on the Beckman Coulter® Vi-CELL™ XR (Fullerton, Calif.). 50 frames of cells were counted and the number of viable cells was determined. The cells were then diluted to 0.25 million cells per ml, and centrifuged at 200 rcf for 5 minutes. The media was removed and the cells were reconstituted in fresh media for plating. The cells were plated at 20 μl per well on the PerkinElmer® FlexDrop PLUS in Low Volume 384 Well White Tissue Culture Plates (Corning) with a final cell density of 5K cells per well. The plates were incubated overnight at 37° Celsius, 5% CO2.
On the second day, the compound plates were prepared, the cells were treated with compound and the pAkt reaction mix was added to the cell lysate. 384 well compound plates were prepared containing 1 μl of compound per well starting at 5 mM and diluted 1:2 across the row, resulting in a 22 well serial dilution. 39 μl of growth media was added to the compound plate in rows 1-22 using the PerkinElmer® FlexDrop PLUS resulting in a DMSO concentration of 2.5%. The cell plates and diluted compound plates were put onto the VELOCITY11™ VPREP™ 384 ST where the compound plate was mixed and 5 μl of serially diluted compound or controls was added to the cell plate. The final concentration of the compounds was 25 μM serially diluted to 11.9 pM in 0.5% DMSO. The cell plates were then incubated with compound for two hours at 37° Celsius, 5% CO2. After two hours, the media in the cell plates was aspirated using the BioTek® ELx405HT plate washer (Winooski, Vt.) removing the majority of media and compound without disturbing the adherent U87 cells. The following assay reagents are components of the SureFire® Akt (Ser 473) Phosphorylation 50K Point Kit (TGR BioSciences, Adelaide, Austalia) and an IgG Detection Kit (PerkinElmer, Waltham, Mass.). 5 μl of 1× Lysis Buffer was added to each well using the PerkinElmer® FlexDrop PLUS. The plates were then incubated at room temperature on a shaker for ten minutes. The AlphaScreen® reaction was prepared under low light conditions (subdued or green light) including p-Akt (Ser 473) Reaction Buffer, Dilution Buffer, Activation Buffer, Acceptor Beads and Donor Beads at a ratio of 40:20:10:1:1 respectively. The AlphaScreen® reaction was added to the cell lysate at 6 μl per well using the PerkinElmer® FlexDrop PLUS. The plates were placed in a humid environment to reduce edge effects and incubated overnight at room temperature with restricted air flow in the dark.
On the final day of the experiment, the plates were read on the PerkinElmer® EnVision™ 2103 Multilable Reader using the standard AlphaScreen® readout. The POC is calculated and the data is analyzed to report the IC50 IP for pAkt at Serine 473.
Activity data for the compounds tested in the PI3K cell based Akt assay is provided in Table 2 under the column heading U87

T1 sequence (P42336 whole entry): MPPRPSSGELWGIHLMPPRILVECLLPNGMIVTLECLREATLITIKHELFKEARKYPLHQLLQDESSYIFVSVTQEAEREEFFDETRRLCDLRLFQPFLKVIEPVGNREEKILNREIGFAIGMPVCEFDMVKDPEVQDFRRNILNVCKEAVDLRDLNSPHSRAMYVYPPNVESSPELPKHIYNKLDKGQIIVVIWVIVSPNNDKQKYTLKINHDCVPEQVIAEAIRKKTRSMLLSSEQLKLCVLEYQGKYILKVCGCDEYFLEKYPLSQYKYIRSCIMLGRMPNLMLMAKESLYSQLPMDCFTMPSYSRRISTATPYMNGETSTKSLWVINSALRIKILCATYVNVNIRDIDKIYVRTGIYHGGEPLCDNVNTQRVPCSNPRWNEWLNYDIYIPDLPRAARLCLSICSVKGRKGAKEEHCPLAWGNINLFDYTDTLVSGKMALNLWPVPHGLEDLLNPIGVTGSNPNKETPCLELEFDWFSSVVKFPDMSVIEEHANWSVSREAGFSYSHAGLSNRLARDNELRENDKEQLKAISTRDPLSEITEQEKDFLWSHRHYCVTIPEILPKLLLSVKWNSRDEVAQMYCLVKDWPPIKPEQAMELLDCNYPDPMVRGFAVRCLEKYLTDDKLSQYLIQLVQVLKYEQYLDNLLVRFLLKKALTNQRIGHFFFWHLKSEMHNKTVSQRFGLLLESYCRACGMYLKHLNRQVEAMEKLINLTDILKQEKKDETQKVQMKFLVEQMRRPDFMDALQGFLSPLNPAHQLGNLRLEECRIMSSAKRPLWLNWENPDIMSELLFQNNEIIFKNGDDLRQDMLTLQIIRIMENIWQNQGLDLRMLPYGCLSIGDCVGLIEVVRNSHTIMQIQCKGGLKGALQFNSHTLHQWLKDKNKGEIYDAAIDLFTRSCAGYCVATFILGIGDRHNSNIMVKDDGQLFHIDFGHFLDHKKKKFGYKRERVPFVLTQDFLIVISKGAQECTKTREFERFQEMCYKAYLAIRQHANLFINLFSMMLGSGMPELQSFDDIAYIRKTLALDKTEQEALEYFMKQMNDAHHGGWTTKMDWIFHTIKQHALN
T1 sequence (P27986 whole entry partner): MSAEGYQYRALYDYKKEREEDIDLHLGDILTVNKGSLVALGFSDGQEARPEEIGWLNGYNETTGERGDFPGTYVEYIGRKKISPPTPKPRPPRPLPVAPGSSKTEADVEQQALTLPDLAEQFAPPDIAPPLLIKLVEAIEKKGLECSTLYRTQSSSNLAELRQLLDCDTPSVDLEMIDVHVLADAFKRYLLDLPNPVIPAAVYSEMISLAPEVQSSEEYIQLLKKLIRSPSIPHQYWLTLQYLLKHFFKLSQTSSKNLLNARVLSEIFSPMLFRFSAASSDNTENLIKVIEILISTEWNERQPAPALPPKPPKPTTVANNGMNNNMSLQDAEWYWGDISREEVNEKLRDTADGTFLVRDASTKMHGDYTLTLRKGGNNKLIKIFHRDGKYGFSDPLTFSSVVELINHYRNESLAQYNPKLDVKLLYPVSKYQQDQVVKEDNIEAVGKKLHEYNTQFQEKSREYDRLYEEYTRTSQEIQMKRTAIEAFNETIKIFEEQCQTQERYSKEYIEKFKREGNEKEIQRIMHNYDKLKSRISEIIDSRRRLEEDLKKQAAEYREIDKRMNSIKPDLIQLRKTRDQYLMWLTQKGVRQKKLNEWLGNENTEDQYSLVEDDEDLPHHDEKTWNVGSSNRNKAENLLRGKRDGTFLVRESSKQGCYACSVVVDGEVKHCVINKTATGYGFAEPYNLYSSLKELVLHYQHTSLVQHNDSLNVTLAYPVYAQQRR
T2 sequence (P42345 1360-2549 limits assumed): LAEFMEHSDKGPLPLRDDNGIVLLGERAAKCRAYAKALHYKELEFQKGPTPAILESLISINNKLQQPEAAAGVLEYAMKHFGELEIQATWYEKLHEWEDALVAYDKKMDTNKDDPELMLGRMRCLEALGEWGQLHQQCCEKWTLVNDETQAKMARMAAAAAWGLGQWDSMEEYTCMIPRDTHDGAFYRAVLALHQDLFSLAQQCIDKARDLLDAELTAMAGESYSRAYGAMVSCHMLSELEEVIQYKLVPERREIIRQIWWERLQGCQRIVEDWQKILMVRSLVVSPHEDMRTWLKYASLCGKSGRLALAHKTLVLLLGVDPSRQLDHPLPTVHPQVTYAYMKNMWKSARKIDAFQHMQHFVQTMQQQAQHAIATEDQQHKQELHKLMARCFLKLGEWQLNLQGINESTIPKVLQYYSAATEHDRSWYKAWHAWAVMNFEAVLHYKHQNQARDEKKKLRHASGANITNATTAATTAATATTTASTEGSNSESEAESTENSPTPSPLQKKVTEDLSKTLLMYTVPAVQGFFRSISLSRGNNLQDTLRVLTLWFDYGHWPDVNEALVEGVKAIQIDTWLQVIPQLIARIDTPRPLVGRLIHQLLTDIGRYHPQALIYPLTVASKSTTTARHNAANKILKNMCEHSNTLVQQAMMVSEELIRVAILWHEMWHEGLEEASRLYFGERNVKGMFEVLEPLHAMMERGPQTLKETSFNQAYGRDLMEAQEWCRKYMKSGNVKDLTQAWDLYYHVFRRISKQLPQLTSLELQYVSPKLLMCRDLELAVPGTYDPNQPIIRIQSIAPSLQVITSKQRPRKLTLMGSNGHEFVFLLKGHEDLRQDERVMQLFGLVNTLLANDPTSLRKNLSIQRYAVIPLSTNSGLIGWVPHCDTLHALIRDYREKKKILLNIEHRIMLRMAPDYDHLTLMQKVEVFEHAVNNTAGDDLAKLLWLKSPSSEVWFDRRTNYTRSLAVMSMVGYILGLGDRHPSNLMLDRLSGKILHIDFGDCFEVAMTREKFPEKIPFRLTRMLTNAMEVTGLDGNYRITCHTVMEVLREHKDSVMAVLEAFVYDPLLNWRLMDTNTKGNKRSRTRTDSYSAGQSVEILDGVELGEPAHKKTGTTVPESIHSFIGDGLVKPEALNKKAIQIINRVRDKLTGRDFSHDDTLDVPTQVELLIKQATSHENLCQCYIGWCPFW
Protocol for PI3Kα: In Vitro PI3K Alphascreen® Assay
The PI3K AlphaScreen® assay (PerkinElmer, Waltham, Mass.) measures the activity of a panel of four phosphoinositide 3-kinases: PI3Kα, PI3Kβ, PI3Kγ, and PI3Kδ. Each of these enzymes phosphorylates the 3′-hydroxyl group on phosphatidylinositiol (4,5)-bisphosphate (PIP2) to produce phosphatidylinositol (3,4,5)-trisphosphate (PIP3). This phosphorylation activity is measured using a GST-tagged PIP3 binding protein (Echelon Biosciences, Salt Lake City, Utah), an anti-GST-tagged Acceptor bead, and streptavidin-Donor bead. […] In the absence of this interaction, proximity of the Donor and Acceptor beads is decreased, producing a loss of luminescent signal which is inversely proportional to PI3K activity.
The enzyme reaction buffer is made using sterile water (Baxter, Deerfield, Ill.) and 50 mM Tris HCl pH 7, 14 mM MgCl2, 2 mM sodium cholate, and 100 mM NaCl. 2 mM DTT is added fresh the day of the experiment. The AlphaScreen® reaction buffer is made using sterile water and 10 mM Tris HCl pH 7.5, 150 mM NaCl, 0.10% Tween 20, and 30 mM EDTA. 1 mM DTT is added fresh the day of the experiment.
The source plates for this assay are 384-well Greiner clear polypropylene plates containing test compounds at 5mM and diluted 1:2 over 22 points. […] Source plates are replicated into 384-well Optiplates (PerkinElmer, Waltham, Mass.), 0.5 μL/well, to make assay-ready plates.
The different PI3K isoforms are each diluted in enzyme reaction buffer to 2× working solutions. […] Two different 2× substrate solutions are made in enzyme reaction buffer. In one solution, PI(4,5)P2 (Echelon Biosciences, Salt Lake City, Utah) is diluted to 10 μM and ATP is diluted to 20 μM. This solution is used in the assays testing PI3Kα and PI3Kβ. In a second solution, PI(4,5)P2 is diluted to 10 μM and ATP is diluted to 8 μM. This solution used in the assays testing PI3Kγ and PI3Kδ.
The AlphaScreen® reaction solutions are made using beads from the anti-GST AlphaScreen® kit (PerkinElmer, Waltham, Mass.). Two solutions are made in Alphascreen reaction buffer to 4× working concentrations. In one solution, biotinylated-IP4 (Echelon Biosciences, Salt Lake City, Utah) is diluted to 40 nM and streptavadin-Donor Beads are diluted to 80 μg/mL. In the second solution, PIP3-binding protein (Echelon Biosciences, Salt Lake City, Utah) is diluted to 40 nM and anti-GST-Acceptor Beads are diluted to 80 μg/mL. 10 μL/well of enzyme reaction buffer is added to Column 24 of the assay ready plates in place of enzyme. This is done for plates in the PI3Kα, β, and 67 assays.
Using a 384-well dispensing Multidrop (Titertek, Huntsville, Ala.), 10 μL/well of 2× enzyme (PI3Kα, β, δ) is added to Columns 1-23 of the appropriate assay ready plates (for PI3Kγ 10 μL is added to Columns 1-24). 10 μL/well of the appropriate substrate solution (the solution with 20 μM ATP for PI3Kα and β assays, and the solution with 8 μM ATP for PI3Kγ and δ assays) is then added to Columns 1-24 of the plates. Plates are then incubated at room temperature for 20 minutes.
In the dark, 10 μL/well of the Donor Bead solution is added to Columns 1-24 of the plates to quench the enzyme reaction. The plates are incubated at room temperature for 30 minutes. Still in the dark, 10 μL/well of the Acceptor Bead solution is also added to Columns 1-24 of the plates. The plates are then incubated in the dark for 1.5 hours. The plates are read on an Envision Multilabel Plate Reader (PerkinElmer, Waltham, Mass.) with a 680 nm excitation filter and a 520-620 nm emission filter.

Broadly, the Ki is the equilibrium dissociation constant of an inhibitor or competing ligand from its target. A low value points to tighter binding. One may read the IC50 as the midpoint of a concentration-inhibition curve. As to `C[C@@H]1CN(c2ccnc3ccc(-c4cnc(Cl)c(NS(C)(=O)=O)c4)cc23)C[C@@H](C)O1` (racemic) [Example 104, N-(2-chloro-5-(4-(2,6-dimethyl-4-morpholinyl)-6-quinolinyl)-3-pyridinyl)methanesulfonamide], the Ki at PI3Kα was 0.0083 µM. Also, the IC50 stood at 0.0058 µM against mTOR and 0.0284 µM in assay [1].

In turn, `CCN(Cc1noc(C2CC2)n1)c1ccnc2ccc(-c3cnc(Cl)c(NS(C)(=O)=O)c3)cc12` [Example 77, N-(2-chloro-5-(4-(((5-cyclopropyl-1,2,4-oxadiazol-3-yl)methyl)(ethyl)amino)-6-quinolinyl)-3-pyridinyl)methanesulfonamide] showed a Ki on PI3Kα of 0.0184 µM. Also, the results for the IC50 (at mTOR; in assay [1]) were 0.0677 µM and 1.93 µM, respectively.

For the compound `CCN(CCC#N)c1ccnc2ccc(-c3cnc(Cl)c(NS(C)(=O)=O)c3)cc12` [Example 78, N-(2-chloro-5-(4-((2-cyanoethyl)(ethyl)amino)-6-quinolinyl)-3-pyridinyl)methanesulfonamide], the affinity on PI3Kα corresponds to a Ki of 0.0276 µM. Further, the figures for the IC50 (on mTOR; in assay [1]) were 0.0117 µM and 0.193 µM, respectively.

As for `COC(C)(C)CNc1ccnc2ccc(-c3cnc(Cl)c(NS(C)(=O)=O)c3)cc12` [Example 79, N-(2-chloro-5-(4-((2-methoxy-2-methylpropyl)amino)-6-quinolinyl)-3-pyridinyl)methanesulfonamide], on PI3Kα, affinity was put at a Ki of 0.0823 µM. The IC50 at mTOR was found to be 0.363 µM; in assay [1], 2.83 µM.

Regarding `Cc1ccccc1OC1CCN(c2ccnc3ccc(-c4cnc(Cl)c(NS(C)(=O)=O)c4)cc23)C1` (centres unmarked) [Example 80, N-(2-chloro-5-(4-(3-(2-methylphenoxy)-1-pyrrolidinyl)-6-quinolinyl)-3-pyridinyl)methanesulfonamide], the affinity on PI3Kα corresponds to a Ki of 0.0294 µM. The IC50 came out at 0.389 µM on mTOR and 0.704 µM in assay [1].

With `COCC1CCCN1c1ccnc2ccc(-c3cnc(Cl)c(NS(C)(=O)=O)c3)cc12` (centres unmarked) [Example 81, N-(2-chloro-5-(4-(2-(methoxymethyl)-1-pyrrolidinyl)-6-quinolinyl)-3-pyridinyl)methanesulfonamide], affinity at PI3Kα was put at a Ki of 0.368 µM. The IC50 on mTOR was found to be 2.74 µM; in assay [1] it was 2.71 µM.

The compound `CS(=O)(=O)Nc1cc(-c2ccc3nccc(N4CCC(c5ccccc5)CC4)c3c2)cnc1Cl` [Example 82, N-(2-chloro-5-(4-(4-phenyl-1-piperidinyl)-6-quinolinyl)-3-pyridinyl)methanesulfonamide] gave a Ki on PI3Kα of 0.0052 µM. The IC50 against mTOR was 0.0167 µM; in assay [1] it was 0.364 µM.

At PI3Kα, `CC(c1ccccc1)N1CCN(c2ccnc3ccc(-c4cnc(Cl)c(NS(C)(=O)=O)c4)cc23)CC1` (centres unmarked) [Example 83, N-(2-chloro-5-(4-(4-(1-phenylethyl)-1-piperazinyl)-6-quinolinyl)-3-pyridinyl)methanesulfonamide] gave a Ki of 0.0136 µM. Also, the figures for the IC50 (against mTOR; in assay [1]) were 0.0821 µM and 0.758 µM, respectively.

For the compound `CS(=O)(=O)Nc1cc(-c2ccc3nccc(N4CCN(Cc5ccc6c(c5)OCO6)CC4)c3c2)cnc1Cl` [Example 84, N-(5-(4-(4-(1,3-benzodioxol-5-ylmethyl)-1-piperazinyl)-6-quinolinyl)-2-chloro-3-pyridinyl)methanesulfonamide], affinity at PI3Kα was put at a Ki of 0.0225 µM. The IC50 was 0.0487 µM against mTOR and 0.289 µM in assay [1].

Regarding `O=S(=O)(Nc1cc(-c2ccc3nccc(N4CCN(Cc5ccncc5)CC4)c3c2)cnc1Cl)c1ccc(F)cc1` [Example 89, N-(2-chloro-5-(4-(4-(4-pyridinylmethyl)-1-piperazinyl)-6-quinolinyl)-3-pyridinyl)-4-fluorobenzenesulfonamide], the figures for the IC50 (against mTOR; in assay [1]) were 0.0039 µM and 0.0223 µM, respectively.

In the case of `O=S(=O)(Nc1cc(-c2ccc3ncc(NCCN4CCOCC4)nc3c2)cnc1Cl)c1ccc(F)cc1` [Example 91, N-(2-chloro-5-(3-((2-(4-morpholinyl)ethyl)amino)-6-quinoxalinyl)-3-pyridinyl)-4-fluorobenzenesulfonamide], the results for the IC50 (against mTOR; in assay [1]) were 0.0053 µM and 0.075 µM, respectively.

For `O=S(=O)(Nc1cc(-c2ccc3nccc(-c4cccnc4)c3c2)cnc1Cl)c1ccc(F)cc1` [Example 93, N-(2-chloro-5-(4-(3-pyridinyl)-6-quinolinyl)-3-pyridinyl)-4-fluorobenzenesulfonamide], the values for the IC50 (at mTOR; in assay [1]) were 0.0016 µM and 0.0119 µM, respectively.

As for `CS(=O)(=O)Nc1cc(-c2ccc3nccc(C4CCOCC4)c3c2)cnc1Cl` [Example 114, N-(2-Chloro-5-(4-(tetrahydro-2H-pyran-4-yl)quinolin-6-yl)pyridin-3-yl)methanesulfonamide], the IC50 against mTOR came to 0.0063 µM; in assay [1], 0.0254 µM.

On to `O=S1(=O)CCC(Oc2ccnc3ccc(-c4cnc(Cl)c(NS(=O)(=O)c5ccc(F)cc5)c4)cc23)C1` (centres unmarked) [Example 115, N-(2-Chloro-5-(4-(tetrahydrothiophen-1,1-dioxide-3-yloxy)quinolin-6-yl)pyridin-3-yl)-4-fluorobenzenesulfonamide], for which the IC50 at mTOR was 0.0126 µM; in assay [1] it was 0.194 µM.

Regarding `O=S(=O)(Nc1cc(-c2ccc3ncc(-c4ccncc4)nc3c2)cnc1Cl)c1ccc(F)cc1` [Example 121, N-(2-Chloro-5-(3-(pyridin-4-yl)quinoxalin-6-yl)pyridin-3-yl)-4-fluorobenzenesulfonamide], the IC50 was determined as 0.0057 µM against mTOR and 0.031 µM in assay [1].

The compound `O=c1c2cccnc2ccn1-c1cnc(Cl)c(NS(=O)(=O)c2ccc(F)cc2)c1` [Example 137, N-(2-chloro-5-(5-oxo-1,6-naphthyridin-6(5H)-yl)-3-pyridinyl)-4-fluorobenzenesulfonamide] yielded a Ki on PI3Kα of 0.548 µM. In assay [1], this compound showed an IC50 of 2.98 µM.
